Laboratory results reported in ChEMBL document CHEMBL6096682, “Discovery of D-Ring-Contracted Artemisinin as a Potent Hydrophobic Tag for Targeted Protein Degradation” (J Med Chem, 2025).
Active and inactive are the calls of the source. The calls are words filed in the database; no cut-off is given here.

Experiments:
[1] = target: Estrogen receptor beta (Homo sapiens) (UniProt Q92731); assay: Binding affinity to ER-beta in human MCF7 cells at 100 uM incubated for 1 hr followed by exposure to heat at 25 to 66 degC for 3 mins and incubation for 3 mins at room temperature by thermal shift binding assay; assay type: cell-based; details: time 66.0 min
[2] = target: Estrogen receptor beta (Homo sapiens) (UniProt Q92731); assay: HyT degrader activity at ER-beta in human MCF7 cells assessed as induction of ER-beta degradation by measuring decrease in ER-beta level at 1 to 10 uM incubated for 24 hrs by immunoblot analysis; assay type: cell-based; details: dose 1-10 µM
[3] = target: T1, Estrogen receptor (Homo sapiens) (UniProt P03372); assay: HyT degrader activity at ER-alpha in human MCF7 cells assessed as induction of ER-alpha degradation by measuring residual ER-alpha level at 10 uM incubated for 12 hrs by immunoblot analysis; assay type: cell-based
T1 sequence (whole entry): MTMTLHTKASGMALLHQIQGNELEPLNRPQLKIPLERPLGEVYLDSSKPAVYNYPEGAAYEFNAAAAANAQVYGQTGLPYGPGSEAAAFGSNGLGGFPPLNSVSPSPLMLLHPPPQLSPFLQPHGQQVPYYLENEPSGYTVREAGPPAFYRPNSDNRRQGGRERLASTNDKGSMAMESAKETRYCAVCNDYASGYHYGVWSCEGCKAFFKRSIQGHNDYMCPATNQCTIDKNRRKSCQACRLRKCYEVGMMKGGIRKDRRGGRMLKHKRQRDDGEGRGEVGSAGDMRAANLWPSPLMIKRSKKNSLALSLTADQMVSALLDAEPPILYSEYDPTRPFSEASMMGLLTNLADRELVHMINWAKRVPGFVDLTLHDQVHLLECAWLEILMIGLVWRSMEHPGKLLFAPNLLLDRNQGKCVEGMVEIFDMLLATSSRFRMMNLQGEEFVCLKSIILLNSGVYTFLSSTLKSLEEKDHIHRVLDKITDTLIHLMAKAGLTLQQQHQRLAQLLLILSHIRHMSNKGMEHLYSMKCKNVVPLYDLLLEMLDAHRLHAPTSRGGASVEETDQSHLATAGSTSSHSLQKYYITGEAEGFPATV

[4] = target: T1, Estrogen receptor (Homo sapiens); assay: HyT degrader activity at ER-alpha in human MCF7 cells assessed as induction of ER-alpha degradation by measuring residual ER-alpha level at 10 uM pretreated with HSP70 inhibitor, VER-155008 for 2 hrs followed by incubation with compound for 12 hrs by immunoblot analysis; assay type: cell-based
[5] = target: T1, Estrogen receptor (Homo sapiens); assay: HyT degrader activity at ER-alpha in human MCF7 cells assessed as induction of ER-alpha degradation by measuring decrease in ER-alpha level at 10 uM pretreated with NAE inhibitor, MLN4924 for 2 hrs followed by incubation with compound for 12 hrs by immunoblot analysis; assay type: cell-based
[6] = target: T1, Estrogen receptor (Homo sapiens); assay: HyT degrader activity at ER-alpha in human MCF7 cells assessed as induction of ER-alpha degradation by measuring decrease in ER-alpha level at 10 uM pretreated with 26S proteasome inhibitor, MG-132 and NAE inhibitor, MLN4924 for 6 hrs followed by incubation with compound for 24 hrs by immunoblot analysis; assay type: cell-based
MCF7 [7] = assay: Antiproliferative activity against human MCF7 cells overexpressing EGFR assessed as reduction in cell viability incubated for 48 hrs by MTT assay relative to control; assay type: functional
MCF7 [8] = assay: Antiproliferative activity against human MCF7 cells overexpressing ER-alpha Y537S mutant assessed as reduction in cell viability incubated for 48 hrs by MTT assay; assay type: functional, cell-based; details: MCF7, 48 h
MCF7 [9] = assay: Antiproliferative activity against human MCF7 cells overexpressing ER-alpha Y537S mutant assessed as reduction in cell viability incubated for 48 hrs by MTT assay relative to control; assay type: functional
MCF7 [10] = assay: Antitumor activity against human MCF7 cells xenografted in Balb/c mouse assessed as tumor volume at 10 mg/kg, iv administered every 3 days and measured for 21 days (reference value: 165.5 mm3); assay type: functional; details: time 21 day
Mus musculus = assay: In vivo induction of ER-alpha degradation in Balb/c mouse xenografted with human MCF7 cells assessed as decrease in ER-alpha expression in tumor at 5 to 10 mg/kg, iv administered every 3 days and measured on day 21 by immunofluorescence analysis; assay type: functional, organism-based; details: dose 5-10 mg/kg, time 21.0 day
[11] = Toxicity in Balb/c mouse xenografted with human MCF7 cells assessed as changes in body weight at 5 to 10 mg/kg, iv administered every 3 days and measured for 21 days; assay type: organism-based; details: in vivo, 504 h, dose 5-10 mg/kg, time 21 day
[12] = Toxicity in Balb/c mouse xenografted with human MCF7 cells assessed as effect on white blood cells count at 5 to 10 mg/kg, iv measured after 24 hrs; assay type: organism-based; details: in vivo, dose 5-10 mg/kg
[13] = Toxicity in Balb/c mouse xenografted with human MCF7 cells assessed as effect on platelets count at 5 to 10 mg/kg, iv measured after 24 hrs; assay type: organism-based; details: in vivo, dose 5-10 mg/kg
[14] = Toxicity in Balb/c mouse xenografted with human MCF7 cells assessed as effect on hemoglobin content at 5 to 10 mg/kg, iv measured after 24 hrs; assay type: organism-based; details: in vivo, dose 5-10 mg/kg
[15] = Hepatotoxicity in Balb/c mouse xenografted with human MCF7 cells assessed as effect on ALT level in serum at 5 to 10 mg/kg, iv measured after 24 hrs; assay type: toxicity, organism-based; details: in vivo, dose 5-10 mg/kg
[16] = Hepatotoxicity in Balb/c mouse xenografted with human MCF7 cells assessed as effect on AST level in serum at 5 to 10 mg/kg, iv measured after 24 hrs; assay type: toxicity, organism-based; details: in vivo, dose 5-10 mg/kg
[17] = Toxicity in Balb/c mouse xenografted with human MCF7 cells assessed as effect on spleen morphological changes at 5 to 10 mg/kg, iv measured after 24 hrs by Hematoxylin-Eosin staining based analysis; assay type: organism-based; details: in vivo, dose 5-10 mg/kg
[18] = Toxicity in Balb/c mouse xenografted with human MCF7 cells assessed as effect on kidneys morphological changes at 5 to 10 mg/kg, iv measured after 24 hrs by Hematoxylin-Eosin staining based analysis; assay type: organism-based; details: in vivo, dose 5-10 mg/kg

Estrogen receptor beta (Homo sapiens), sequence (Q92731 whole entry): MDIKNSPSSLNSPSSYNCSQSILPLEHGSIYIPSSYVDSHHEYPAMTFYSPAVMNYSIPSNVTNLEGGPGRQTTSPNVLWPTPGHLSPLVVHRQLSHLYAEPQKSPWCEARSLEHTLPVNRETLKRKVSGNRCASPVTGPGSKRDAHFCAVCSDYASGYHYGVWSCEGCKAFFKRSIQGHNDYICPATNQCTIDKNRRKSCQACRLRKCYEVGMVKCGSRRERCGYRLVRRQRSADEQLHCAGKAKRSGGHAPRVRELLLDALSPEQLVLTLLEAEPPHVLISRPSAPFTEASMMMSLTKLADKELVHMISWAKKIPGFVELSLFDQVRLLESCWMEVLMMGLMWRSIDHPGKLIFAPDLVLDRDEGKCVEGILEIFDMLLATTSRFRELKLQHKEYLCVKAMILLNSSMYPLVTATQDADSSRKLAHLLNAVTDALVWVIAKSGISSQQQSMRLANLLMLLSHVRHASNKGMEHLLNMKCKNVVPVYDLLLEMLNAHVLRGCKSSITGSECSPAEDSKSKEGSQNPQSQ

C[C@@H]1CCC2[C@]34OO[C@](C)(CCC13)O[C@@H]4O[C@]2(C)C(=O)NCCCOc1ccc(C(=O)c2c(-c3ccc(O)cc3)sc3cc(O)ccc23)cc1 (some centres undefined)
Activity [1]: Active; Weak Affinity | Activity [2]: Active | Activity [3]: 23.5% | Activity [4]: 71.9% | Activity [5]: inactive | Activity [6]: inactive | inhibition (INH) (MCF7 [7]): 56.7% | IC50 (MCF7 [8]): 10.9 µM | inhibition (INH) (MCF7 [9]): 63.6% | Activity (MCF7 [10]): 65.1 mm3 | Activity (Mus musculus): Active | Activity [11]: Non-toxic | Activity [12]: Non-toxic | Activity [13]: Non-toxic | Activity [14]: Non-toxic | Activity [15]: Non-toxic | Activity [16]: Non-toxic | Activity [17]: Non-toxic | Activity [18]: Non-toxic
